Data taken from article PMC11227536, “Modulation of the Meisenheimer complex metabolism of nitro-benzothiazinones by targeted C-6 substitution” (Communications Chemistry, 2024).
≈ marks a conversion by molar mass, not a printed value.

Experiments:
Assay type in all cases: cell-based
[1] = test system: Mycobacterium vaccae (JMRC:STI:10670); assay: MIC determination; conditions: for MIC: Mycolicibacterium vaccae, n = 1; for Selectivity index: ratio between CC50 (HeLa) and MIC M. vaccae; for antimycobacterial activity (in words): M. vaccae
Experimental: (§1) Supplementary Method 5: Biological Assays
(§2) Minimal inhibitory concentrations were determined against Mycobacterium vaccae (JMRC:STI:10670) and Mycobacterium smegmatis (JMRC:STH:00056). M. vaccae and M. smegmatis cultures were grown 48 h at 32 °C in a medium consisting of glycerol (1%), beef extract (0.5%), peptone from casein (0.5%) and sodium chloride (0.3%). Serial dilutions of the DMSO test item solutions (1 mg∙mL -1) were prepared at 100 µL scale in 96 well plates in Mueller Hinton broth starting at 200 µg∙mL -1 (highest) to cover a final concentration range of 100 to 0.05 µg∙mL -1. Each plate was equipped with a series of DMSO and ciprofloxacin dilutions as quality controls. 96 well plates were inoculated with 100 µL diluted culture (Mueller Hinton bullion) at a final concentration of 5∙10 5 and incubated at 37 °C for 42 h. Growth/no growth was visually inspected.
(§3) 2. Proliferation and cytotoxicity assay
(§4) Cells and culture conditions
(§5) The following cell lines and media were used:
(§6) Cell line Cell culture medium
(§7) Cells were grown in the appropriate cell culture medium supplemented with 10 mL/L ultraglutamine 1 […]
(§8) heat inactivated fetal bovine serum (GIBCO Life Technologies 10270-106) at 37 °C in 5% CO 2 in high density polyethylene flasks (NUNC 156340).
(§9) To decide if the compounds have an antiproliferative and/or a cytotoxic effect on human cells, cell death and retardation of cell proliferation were assessed. Under our experimental conditions, the optical density measured from the CellTiter-Blue® reagent and methylene blue assay is proportional to the […]
(§10) The test substances were dissolved in DMSO and further diluted in the cell culture medium. The adherent cells were harvested at the logarithmic growth phase after soft trypsinization using 0.25% trypsin in PBS containing 0.02% EDTA (Biochrom KG L2163). For each experiment, approximately 10,000 cells were seeded with 0.1 mL culture medium per well of the 96-well microplates (HUVEC: flat bottomed NUNC 167008, K-562: round bottomed NUNC 163320). To test the antiproliferative

[2] = test system: Mycobacterium smegmatis (JMRC:STH:00056); assay: MIC determination; conditions: Mycolicibacterium smegmatis; n = 1
Experimental: as §1
as §2, with “inspected. […]” for “inspected.”

Cytotoxicity assay = conditions: human, n = 4
Experimental: Supplementary Method 5: Biological Assays […]
as §3, §4, §5, §6, §7, §8, §9
as §10, with “To test the antiproliferative” left out
For the cytotoxicity assay, HeLa cells were preincubated for 48 hours without the test substances. To test the cytotoxic effect on HeLa, dilutions of the compounds were carried out carefully on the subconfluent monolayers of HeLa cells after the preincubation time. After incubation time, the cytolytic effect of compounds was analysed in comparison to the negative control. The 50% cytotoxic concentration (CC 50 ) was defined as the test compound concentration required for destruction of the cell monolayer by 50% compared to untreated control.
Cells were incubated with dilutions of the test substances in microplates for 72 hours at 37 °C in a humidified atmosphere and 5% CO 2. […]
cytotoxicity and the inhibition of cell proliferation. The number of viable cells was determined subsequent to staining with CellTiter-Blue® reagent or methylene blue. […]
HUVEC and HeLa cells: The adherent HUVEC and HeLa cells were fixed by glutaraldehyde (MERCK […]
gently washing, the stain was eluted by adding 0.2 mL of hydrochloric acid (0.33 M) to each well. The optical densities were measured at 660 nm (methylene blue) in SUNRISE microplate reader (TECAN).
General remarks: Signals from the methylene blue and CellTiter-Blue® reagent are proportional to the number of viable cells. A repeat determination has been conducted in all experiments, four replicates were assayed. The calculations of the different values of GI 50 and CC 50 were performed with the software

SMILES | MIC [1] | Selectivity index [1] | MIC [2] | CC50 at 72 h (Cytotoxicity assay) | antimycobacterial activity (in words) [1] | MIC ([1]; 42 h)
COC(=O)c1cc([N+](=O)[O-])c2sc(N3CCC4(CC3)OC[C@H](C)O4)nc(=O)c2c1 [Compound 6a] | 0.24 µM (≈ 0.101 µg/mL) | > 500 | 3.7 µM (≈ 1.56 µg/mL) | > 119 µM | – | –
CC(C)OC(=O)c1cc([N+](=O)[O-])c2sc(N3CCC4(CC3)OC[C@H](C)O4)nc(=O)c2c1 [Compound 6c] | 0.22 µM (≈ 0.0989 µg/mL) | > 500 | 6.94 µM (≈ 3.12 µg/mL) | > 111 µM | – | –
C[C@H]1COC2(CCN(c3nc(=O)c4cc(C(=O)N(C)C)cc([N+](=O)[O-])c4s3)CC2)O1 [Compound 7c] | 28.8 µM (≈ 12.5 µg/mL) | > 4 | 230 µM (≈ 100 µg/mL) | > 115 µM | – | –
CON(C)C(=O)c1cc([N+](=O)[O-])c2sc(N3CCC4(CC3)OC[C@H](C)O4)nc(=O)c2c1 [Compound 7f] | 13.9 µM (≈ 6.26 µg/mL) | > 8 | 111 µM (≈ 50 µg/mL) | > 111 µM | – | –
C[C@H]1COC2(CCN(c3nc(=O)c4cc(C(=O)O)cc([N+](=O)[O-])c4s3)CC2)O1 [Compound 8] | 0.98 µM (≈ 0.399 µg/mL) | > 125 | 15.3 µM (≈ 6.23 µg/mL) | > 123 µM | moderate activity | –
C[C@H]1COC2(CCN(c3nc(=O)c4cc(C#N)cc([N+](=O)[O-])c4s3)CC2)O1 [Compound 9] | 0.016 µM (≈ 0.00621 µg/mL) | > 8062 | 0.13 µM (≈ 0.0505 µg/mL) | > 129 µM | similarly active as BTZ-043 (1) | –
C[C@H]1COC2(CCN(c3nc(=O)c4cc(I)cc([N+](=O)[O-])c4s3)CC2)O1 [Compound 10] | 0.006 µM (≈ 0.00294 µg/mL) | > 16114 | 0.1 µM (≈ 0.0489 µg/mL) | > 102 µM | similarly active as BTZ-043 (1) | –
C[C@H]1COC2(CCN(c3nc(=O)c4cc(Br)cc([N+](=O)[O-])c4s3)CC2)O1 [Compound 11] | 0.004 µM (≈ 0.00177 µg/mL) | > 31236 | 0.057 µM (≈ 0.0252 µg/mL) | > 113 µM | similarly active as BTZ-043 (1) | –
C[C@H]1COC2(CCN(c3nc(=O)c4cccc([N+](=O)[O-])c4s3)CC2)O1 [Compound 23] | – | > 125 | 8.59 µM (≈ 3.12 µg/mL) | > 138 µM | significantly lower activity than 1 | 1.1 µM (≈ 0.4 µg/mL)
